# Reference: ChEMBL document CHEMBL1201862, “PubChem BioAssay data set” (2004)
#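 Cultured in 96-well plates, cells were exposed to test compound for 48 hours across five concentrations. GI50 = concentration required for 50% inhibition of growth.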 Active and inactive are the calls of the source. Cut-off read from the data, not from the text of the source: active = GI50 up to about 1.1 µM and inactive = higher. Residues, ends and D or L forms follow the SMILES beside them. *: point of attachment. Ethyl(2-NMe3+) = C[N+](C)(C)CC*; Boc = CC(C)(C)OC(=O)*
# Assays:
# Test in all cases: DTP human tumour cell line panel, 48 h
# BT-549 = system: BT-549
# DLD-1 = system: DLD-1
# LXFL 529 = system: LXFL 529
# M19-MEL = system: M19-MEL
# SNB-78 = system: SNB-78
# XF498 = system: XF498
# DMS-114 = system: DMS-114
# HOP-18 = system: HOP-18
# RXF 631 = system: RXF 631
SMILES,GI50 (BT-549),GI50 (DLD-1),GI50 (LXFL 529),GI50 (M19-MEL),also measured
CCOC(=O)c1cc2cc([N+](=O)[O-])ccc2oc1=O,> 100 µM (inactive),,,,
Cc1nnc([C@@]2(C)CC[C@H]3[C@@H](CC=C4C[C@@H](O)CC[C@@]43C)[C@@H]2CC#N)o1,> 100 µM (inactive),,,,
CCC(C)CNC1=C(NC(C)=O)C(=O)c2ccccc2C1=O (stereo not given),,> 100 µM (inactive),> 100 µM (inactive),20.7 µM (inactive),GI50 (SNB-78): > 100 µM (inactive); GI50 (XF498): > 100 µM (inactive)
C=CC[C@@]1(C)CCCCCCCCC[C@@](C)(CC=C)C1=O,27.4 µM (inactive),,,,
N/N=C1\c2ccccc2C2/C(=N\N)c3ccccc3C12 (stereo not given),,> 100 µM (inactive),> 100 µM (inactive),> 100 µM (inactive),GI50 (DMS-114): > 100 µM (inactive); GI50 (HOP-18): 57.4 µM (inactive)
COC(=O)/C=C1/OC(c2ccccc2)=C(C)C1=O,2.86 µM (inactive),,,,
COc1ccc(CC2c3cc(OC)c(OC)cc3CC[N+]2(C)C)cc1OC (stereo not given),> 100 µM (inactive),,,,
NC(=O)c1nnc2cc(F)ccc2c1N,84.9 µM (inactive),,,,
CC(C)Oc1c(N(Cc2ccccc2)c2ccccc2C2SCCCS2)c(=O)c1=O,6.38 µM (inactive),,,,
ClC(Cl)(Cl)C1=N[C@H]2[C@H](Br)[C@@H]3O[C@@H](c4ccccc4)[C@H](c4ccccc4)O[C@@H]3[C@H]2O1,24.9 µM (inactive),,,,
CC(NC(=O)C(Cc1ccc(OCC[N+](C)(C)C)cc1)NC(=O)OC(C)(C)C)C(=O)NC(Cc1ccccc1)C(=O)NCC(N)=O (stereo not given) (Boc-Y(Ethyl(2-NMe3+))AFG-NH2; configuration not given here),20.2 µM (inactive),,,,
CCOc1cc2c(cc1O)C(=O)C[C@@H]1[C@@H]2CC[C@]2(C)[C@@H](O)CC[C@@H]12,0.15 µM (active),,,,
OC1(c2ccc(Cl)cc2)c2ccccc2C2=NCc3ccccc3CN21 (stereo not given),18.6 µM (inactive),,,,
C[C@@H](NC(=O)Cn1c(Cl)nc2ccccc21)c1ccccc1,> 100 µM (inactive),,,,
C/C(=C\COP(=O)(O)OP(=O)(O)O)CC/C=C(\C)CNc1ccccc1,9.16 µM (inactive),,,,
C=C(C)[C@@H]1CC[C@]2(C(=O)OC3OC(COC4OC(CO)C(OC5OC(C)C(O)C(O)C5O)C(O)C4O)C(O)C(O)C3O)CC[C@]3(C)[C@H](CC[C@@H]4[C@@]5(C)CC[C@H](O)[C@@](C)(CO)[C@@H]5CC[C@]43C)[C@@H]12 (stereo not given in full),3.06 µM (inactive),,,,
CCCCCC/C=C\CCCCCCCCCC1=C(CN2CCN(C)CC2)C(=O)C=C(OC)C1=O,3.87 µM (inactive),,,,
CC(C)(Cc1ccccc1)Cc1cc(O)ccc1O,16.3 µM (inactive),,,,
O=C1c2c(c3c4ccccc4[nH]c3c3[nH]c4ccccc4c23)C(=O)N1Cc1ccccc1,,3.64 µM (inactive),3.44 µM (inactive),3.64 µM (inactive),GI50 (RXF 631): 2.32 µM (inactive); GI50 (DMS-114): 2.82 µM (inactive); GI50 (SNB-78): 3.06 µM (inactive); GI50 (XF498): 2 µM (inactive)
Cc1c(-c2nnc(-c3ccc(Cl)cc3)o2)c(=O)n(-c2ccccc2)n1C,,> 100 µM (inactive),> 100 µM (inactive),> 100 µM (inactive),GI50 (DMS-114): > 100 µM (inactive); GI50 (HOP-18): > 100 µM (inactive); GI50 (SNB-78): > 100 µM (inactive); GI50 (XF498): > 100 µM (inactive)
C/C(=N\Nc1ccccc1)c1sc(-c2nc(C)c(/C(C)=N/Nc3ccccc3)s2)nc1C,,22.1 µM (inactive),7.06 µM (inactive),17.2 µM (inactive),GI50 (DMS-114): 11.5 µM (inactive); GI50 (HOP-18): > 45 µM (inactive); GI50 (SNB-78): > 64.7 µM (inactive); GI50 (XF498): 45.6 µM (inactive)
CCOP(=O)(CC(=O)C1CC1)OCC,> 100 µM (inactive),,,,
N#CCCN(CCC#N)c1ccc(/C=C2\N=C(COc3ccc(Cl)cc3Cl)OC2=O)cc1,,> 100 µM (inactive),> 100 µM (inactive),> 100 µM (inactive),GI50 (RXF 631): > 100 µM (inactive); GI50 (DMS-114): > 100 µM (inactive); GI50 (SNB-78): > 100 µM (inactive); GI50 (XF498): > 100 µM (inactive)
CCOC(=O)c1nc2cc(C(F)(F)F)ccc2nc1Nc1ccc(OC)c(OC)c1,> 100 µM (inactive),,,,
COc1cccc([C@H]2CC(=O)c3cc4c(cc3N2)OCO4)c1,8.59 µM (inactive),,,,
CCOc1ccccc1/N=N/c1ccc2oc(=O)c(C(=O)Nc3cccc(C)c3)cc2c1,,24.2 µM (inactive),26.1 µM (inactive),27 µM (inactive),GI50 (RXF 631): 34.5 µM (inactive); GI50 (DMS-114): 23.1 µM (inactive); GI50 (SNB-78): 24.5 µM (inactive); GI50 (XF498): 34.6 µM (inactive)
O=C1Nc2ccc(Br)cc2/C1=N/c1ccc2c(c1)OCO2,19.8 µM (inactive),,,,
COC(=O)CC[C@]12C[C@]13CC[C@]1(C)C4C(C)C[C@]5(CC(C)C(=O)O5)OC4CC1(C)C3CCC2C(C)(C)O (stereo not given in full),,51.8 µM (inactive),55.2 µM (inactive),48 µM (inactive),GI50 (DMS-114): 59.7 µM (inactive); GI50 (HOP-18): > 100 µM (inactive); GI50 (SNB-78): 89.9 µM (inactive); GI50 (XF498): 58.6 µM (inactive)
CCOC(=O)/C=C(/C(=O)OCC)n1ccc(N)nc1=O,61.4 µM (inactive),,,,
C[C@]12CCC(=O)C[C@H]1CCC(O)[C@@H]2Br (stereo not given in full),,> 100 µM (inactive),> 100 µM (inactive),> 100 µM (inactive),GI50 (RXF 631): > 100 µM (inactive); GI50 (DMS-114): > 100 µM (inactive); GI50 (HOP-18): > 100 µM (inactive); GI50 (XF498): > 100 µM (inactive)
